Measured values: publication PMC6412895, “Synthesis, Characterization, and Biological Activity of a Novel Series of Benzo[4,5]imidazo[2,1-b]thiazole Derivatives as Potential Epidermal Growth Factor Receptor Inhibitors” (Molecules, 2019)
pIC50: −log10 of the molar value.

Assays:
[1] = tested on: HeLa cells; test: MTT anti-proliferative assay, HeLa; assay type: cell-based, human; settings: 24 h incubation, EGFR high-expressed cell line
Procedure: (§1) The inhibitory activities of all target compounds against the cervical cancer cell line HeLa, human liver cancer cell line HepG2, human liver cell line HL7702, and human umbilical vein endothelial cell line HUVEC were determined by the 3-(4,5-dimethylthiazol-2-yl)-2,5-diphenyltetrazolium bromide (MTT) assay. As known, the EGFR level of the HeLa cells was highly expressed, while that of the HepG2 cells was low, and the HL7702 cells and HUVEC cells were human normal cells.
(§2) The human cancer cell lines (HeLa and HepG2) and the human normal ones (HL7702 and HUVEC) were chosen to evaluate the antitumor activity and cell toxicity of target compounds in vitro by the MTT assay. HeLa, HepG2, and HUVEC cells were cultured in a Dulbecco’s modified Eagle’s medium (DMEM) supplemented with 10% fetal bovine serum, and HL7702 cells were cultured in a DMEM supplemented with 10% fetal bovine serum. Cells were grown to 80–90% confluence and subjected to no more than 20 cell passages and were left to acclimatize for 24 h before any treatments. The cells were seeded into 96-well plates (8 * 10^4 cells/mL) and incubated at 37 °C in a humidified atmosphere containing 5% CO2 overnight. After 24 h, the cancer cells were treated with the target compounds at 100, 50, 25, 12.5, 6.25, 3.13, and 1.56 μmol/L; the human normal cells HL7702 were treated with 200 and 100 μmol/L of the target ones; and the HUVEC were treated with 100 and 50 μmol/L of the target compounds. After 24 h of incubation, MTT (5 mg/mL) was subsequently added and incubated for 4 h. Next, the culture medium was cleared, and the crystals were dissolved in DMSO. The optical densities (OD) at 490 nm were measured on a universal microplate reader (Bio-Tek instruments, Inc., EL × 800). Inhibitory effects were expressed as the percentage of IC50 value.

[2] = tested on: HUVEC cells; test: MTT cell toxicity assay, HUVEC; assay type: cell-based; settings: 24 h incubation, human normal cells
Procedure: as §1, §2

[3] = tested on: HL7702 cells; test: MTT cell toxicity assay, HL7702 normal liver cells; assay type: cell-based; settings: human normal liver cell line
Procedure: as §1, §2

[4] = tested on: HepG2 cells; test: MTT anti-proliferative assay, HepG2; assay type: cell-based, human; settings: EGFR low-expressed cell line
Procedure: as §1, §2

[5] = target: EGFR kinase (Homo sapiens, UniProt P00533); test: EGFR kinase assay (Kinase-Glo Plus luminescence); assay type: biochemical; settings: 10 µM ATP, 30 °C, 40 minutes
Procedure: The EGFR kinase assays of the target compounds were performed by the intrinsic ATPase activity luminescence assay. All the enzymatic reactions were conducted at 30 °C for 40 minutes. The 50 µL reaction mixture contained 40 mM Tris, pH 7.4, 10 mM MgCl2, 0.1 mg/mL BSA, 1 mM DTT, 10 µM adenosine triphosphate (ATP), 0.2 ug/mL PI3 Kinase, and 100 µM lipid substrate. The compounds were diluted in 10% DMSO and 5 µL of the dilution was added to a 50 µL reaction so that the final concentration of DMSO was 1% in all the reactions. The assay was performed using the Kinase-Glo Plus luminescence kinase assay kit, which measures the kinase activity by quantifying the amount of ATP remaining in solution following a kinase reaction. The luminescent signal from the assay was correlated with the amount of ATP present and was inversely correlated with the amount of kinase activity. The IC50 values were calculated using nonlinear regression with a normalized dose−response fit using the Prism GraphPad software (version 6.0, GraphPad Software, San Diego, CA, USA).

[6] = Homo sapiens, HepG2, 24 h incubation

Sequence of EGFR kinase (P00533 669-1210 limits assumed): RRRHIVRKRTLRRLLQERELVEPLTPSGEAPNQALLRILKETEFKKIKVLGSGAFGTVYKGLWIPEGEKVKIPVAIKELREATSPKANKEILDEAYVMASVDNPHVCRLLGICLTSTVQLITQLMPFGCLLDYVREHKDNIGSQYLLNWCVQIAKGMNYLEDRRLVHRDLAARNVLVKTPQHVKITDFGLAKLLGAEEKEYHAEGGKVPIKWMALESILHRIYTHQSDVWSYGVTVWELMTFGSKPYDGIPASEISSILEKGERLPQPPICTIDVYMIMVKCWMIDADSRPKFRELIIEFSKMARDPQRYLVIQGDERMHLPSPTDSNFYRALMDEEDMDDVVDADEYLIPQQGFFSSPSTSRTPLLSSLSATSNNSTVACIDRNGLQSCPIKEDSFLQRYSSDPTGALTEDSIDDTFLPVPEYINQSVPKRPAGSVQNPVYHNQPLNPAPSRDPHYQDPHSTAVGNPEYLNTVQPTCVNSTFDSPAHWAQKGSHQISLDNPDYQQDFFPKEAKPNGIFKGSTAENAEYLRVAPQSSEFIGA

| Molecule | pIC50 ([1]; Homo sapiens, HeLa) | melting point [°C] | pIC50 [4, 6] | pIC50 [5] | pIC50 [1] | pIC50 ([4]; 24 h incubation) | pIC50 ([2]; HUVEC) | pIC50 ([3]; L02, 24 h incubation) | pIC50 [2] | pIC50 ([3]; 24 h incubation) |
| --- | --- | --- | --- | --- | --- | --- | --- | --- | --- | --- |
| 2-(Benzo[4,5]imidazo[2,1-b]thiazol-3-yl)-N-(4-(benzyloxy)phenyl)acetamide [Compound D12] |  |  |  |  | < 4.00 | < 4.00 |  |  | < 4.00 | < 3.70 |
| O=C(Cc1csc2nc3ccccc3n12)Nc1ccc([N+](=O)[O-])cc1 [Compound D07, 2-(Benzo[4,5]imidazo[2,1-b]thiazol-3-yl)-N-(4-nitrophenyl)acetamide] | < 4.00 | 99 to 101 | < 4.00 |  |  |  | < 4.00 | < 3.70 |  |  |
| 2-(Benzo[4,5]imidazo[2,1-b]thiazol-3-yl)-N-(4-(trifluoromethyl)phenyl)acetamide [Compound D18] |  |  |  |  | 4.36 |  |  |  |  |  |
| O=C(Cc1csc2nc3ccccc3n12)Nc1ccc(F)c(Br)c1 [Compound D13, 2-(Benzo[4,5]imidazo[2,1-b]thiazol-3-yl)-N-(3-bromo-4-fluorophenyl)acetamide] | < 4.00 | 218 to 220 | < 4.00 |  |  |  | < 4.00 | < 3.70 |  |  |
| C=CCOc1ccc(NC(=O)Cc2csc3nc4ccccc4n23)cc1 [Compound D05, N-(4-(Allyloxy)phenyl)-2-(benzo[4,5]imidazo[2,1-b]thiazol-3-yl)acetamide] | < 4.00 | 196 to 198 | < 4.00 |  |  |  | < 4.00 | < 3.70 |  |  |
| O=C(Cc1csc2nc3ccccc3n12)Nc1ccc(O)cc1 [Compound D02, 2-(Benzo[4,5]imidazo[2,1-b]thiazol-3-yl)-N-(4-hydroxyphenyl)acetamide] | < 4.00 | 101 to 103 | < 4.00 |  |  |  | < 4.00 | < 3.70 |  |  |
| O=C(Cc1csc2nc3ccccc3n12)Nc1ccccc1 [Compound D01, 2-(Benzo[4,5]imidazo[2,1-b]thiazol-3-yl)-N-phenylacetamide] | < 4.00 | 123 to 125 | < 4.00 |  |  |  | < 4.00 | < 3.70 |  |  |
| O=C(Cc1csc2nc3ccccc3n12)Nc1ccc(Br)cc1 [Compound D14, 2-(Benzo[4,5]imidazo[2,1-b]thiazol-3-yl)-N-(4-bromophenyl)acetamide] | < 4.00 | 107 to 109 | < 4.00 |  |  |  | < 4.00 | < 3.70 |  |  |

More lines, main results first:

| pIC50 ([1]; Homo sapiens, HeLa) | melting point [°C] | pIC50 [4, 6] | pIC50 [5] | pIC50 [1] | pIC50 ([4]; 24 h incubation) | Molecule | pIC50 ([2]; HUVEC) | pIC50 ([3]; L02, 24 h incubation) | pIC50 [2] | pIC50 ([3]; 24 h incubation) |
| --- | --- | --- | --- | --- | --- | --- | --- | --- | --- | --- |
| < 4.00 | 206 to 208 | < 4.00 |  |  |  | O=C(Cc1csc2nc3ccccc3n12)Nc1ccc(Cl)cc1Cl [Compound D17, 2-(Benzo[4,5]imidazo[2,1-b]thiazol-3-yl)-N-(2,4-dichlorophenyl)acetamide] | < 4.00 | < 3.70 |  |  |
| < 4.00 | 151 to 153 | < 4.00 |  |  |  | O=C(Cc1csc2nc3ccccc3n12)Nc1ccc(Br)c(F)c1 [Compound D11, 2-(Benzo[4,5]imidazo[2,1-b]thiazol-3-yl)-N-(4-bromo-3-fluorophenyl)acetamide] | < 4.00 | < 3.70 |  |  |
| < 4.00 | 83 to 85 | < 4.00 |  |  |  | Cc1ccccc1NC(=O)Cc1csc2nc3ccccc3n12 [Compound D15, 2-(Benzo[4,5]imidazo[2,1-b]thiazol-3-yl)-N-(2-methylphenyl)acetamide] | < 4.00 | < 3.70 |  |  |
| < 4.00 | 132 to 134 | < 4.00 |  |  |  | O=C(Cc1csc2nc3ccccc3n12)Nc1cccc([N+](=O)[O-])c1 [Compound D06, 2-(Benzo[4,5]imidazo[2,1-b]thiazol-3-yl)-N-(3-nitrophenyl)acetamide] | < 4.00 | < 3.70 |  |  |
| 4.85 | 151 to 153 | < 4.00 | 7.00 |  |  | O=C(Cc1csc2nc3ccccc3n12)Nc1ccc(Cl)cc1 [Compound D09, 2-(Benzo[4,5]imidazo[2,1-b]thiazol-3-yl)-N-(4-chlorophenyl)acetamide] | < 4.00 | < 3.70 |  |  |
| 4.49 | 101 to 103 | < 4.00 |  |  |  | O=C(Cc1csc2nc3ccccc3n12)Nc1cc(F)cc(F)c1 [Compound D16, 2-(Benzo[4,5]imidazo[2,1-b]thiazol-3-yl)-N-(3,5-difluorophenyl)acetamide] | < 4.00 | < 3.70 |  |  |
| < 4.00 | 111 to 113 | < 4.00 |  |  |  | O=C(Cc1csc2nc3ccccc3n12)Nc1cccc(O)c1 [Compound D03, 2-(Benzo[4,5]imidazo[2,1-b]thiazol-3-yl)-N-(3-hydroxyphenyl)acetamide] | < 4.00 | < 3.70 |  |  |
| 6.38 | 121 to 123 | < 4.00 | 7.26 |  |  | O=C(Cc1csc2nc3ccccc3n12)Nc1ccccc1O [Compound D04, 2-(Benzo[4,5]imidazo[2,1-b]thiazol-3-yl)-N-(2-hydroxyphenyl)acetamide] | < 4.00 | < 3.70 |  |  |
| < 4.00 | 153 to 155 | < 4.00 |  |  |  | O=C(Cc1csc2nc3ccccc3n12)Nc1ccc(Cl)c(C(F)(F)F)c1 [Compound D10, 2-(Benzo[4,5]imidazo[2,1-b]thiazol-3-yl)-N-(4-chloro-3-(trifluoromethyl)phenyl)acetamide] | < 4.00 | < 3.70 |  |  |
| 5.60 | 136 to 138 | < 4.00 | 7.05 |  |  | O=C(Cc1csc2nc3ccccc3n12)Nc1cccc2ccccc12 [Compound D08, 2-(Benzo[4,5]imidazo[2,1-b]thiazol-3-yl)-N-(naphthalen-1-yl)acetamide] | < 4.00 | < 3.70 |  |  |
